Assay results: paper PMC11530130, “Peripherally restricted PICK1 inhibitor mPD5 ameliorates pain behaviors in murine inflammatory and neuropathic pain models” (JCI Insight, 2024)
Several values for one entry are separate records, joined by “and”; a condition that tells them apart may be missing. Identical values can stand only once.

Experiments:
[1] = test system: mice, CFA model of inflammatory pain; experiment: Single exposure place preference (sePP), CFA mice; type: in vivo, mouse; design: time spent in the paired compartment, individual mice: reference not given here
Procedure: On days 6-8, the escape hole was moved
90 degrees, and all mice went through the second bout of training. On day nine, a second probe trial was performed testing the reversal learning of the mice.
Cancer induced bone pain was induced as described in the “Induction of cancer induced bone pain (CIBP model)"-section. For the assessment of limb use, all mice from one cage were placed in an empty transparent plastic box and left for ten min to habituate. One mouse at a time was moved by tunnel handling or scooping to an identical plastic box for the limb use test. […]
gait, 3 Insignificant limping, 2 Significant limping and shift in bodyweight towards the healthy limb 1 Significant limping and partial lack of use of ipsilateral leg 0 Total lack of use of ipsilateral leg. A score of 0 was used as a humane endpoint. Urine and faeces were cleaned from the plastic box with a dry paper towel between mice from the same cage, and a new plastic box was used for mice from different cages. The limb use test was video filmed for later […]
Assessment of static weight bearing. […]
Initial perception of the drugs was measured by single exposure place preference experiments performed in an elongated three compartment apparatus (67.5 cm x 24 cm) with a biased design of different floor textures and wall patterns and a neutral zone in the middle. […]

naive mice = experiment: Open field locomotion; type: in vivo, mouse; design: total locomotion in open field, individual mice: unit not given here; settings: for open field locomotion per 5min bin (Fig S8A): individual animals, listed as myr
Procedure: Concentration 10 µmol/kg: Wild type mice were habituated to the experimental room for a minimum of 60 min before initiation of the experiment. Female and male mice were run on separate days. Mice were injected s.c. with 10 μmol/kg mPD5 or sterile PBS directly before being placed in open field boxes (40 cm x 40 cm x 80 cm) for 2.5 hours with up to four mice in boxes at any one time. A video camera placed above the open field recorded the animals’ behaviour and Ethovision XT 13 (Noldus) was used to track the distance travelled by the […]
Concentration 30 + 50 µmol/kg: Animals were habituated to the experimental room for a minimum of 60 min before initiation of the experiment. At initiation of experiment, the mice (all male) were injected subcutaneously (s.c.) with mPD5 (30 or 50 μmol/kg, pH adjusted to approximately 7 with 5 M NaOH) or 0.9 % saline (B.Braun, Germany) and left in their home cage for 60 min. After exactly one hour, the mice were placed in an open field (40 cm x 40 cm x 80 cm) for 60 min. A video camera placed above the open field recorded the animals’ […]
animal. The experiment was run in cohort with Figure 2B+C of (9)). […]

For `CCCCCCCCCCCCCC(=O)N(CCOCCOCCC(=O)N[C@@H](Cc1c[nH]cn1)C(=O)N[C@@H](Cc1c[nH]c2ccccc12)C(=O)N[C@@H](CC(C)C)C(=O)N[C@@H](CCCCN)C(=O)N[C@H](C(=O)O)C(C)C)CCOCCOCCC(=O)N[C@@H](Cc1c[nH]cn1)C(=O)N[C@@H](Cc1c[nH]c2ccccc12)C(=O)N[C@@H](CC(C)C)C(=O)N[C@@H](CCCCN)C(=O)N[C@H](C(=O)O)C(C)C` [mPD5, myristoyl-NPEG4-(HWLKV)2], the “time in the paired compartment compared with the PBS animals (sePP)” value ([1]; CFA animals, s.c. 30 μmol/kg in the gray (paired) compartment) was “significantly more time in the paired compartment”, the “time spent in the paired compartment, individual mice” value ([1]; CFA mice conditioned with 30 μmol/kg) was 1.043 and 0.9432 and 1.1179 and 0.8953 and 1.389 and 1.4664 and 0.991 and 1.199 and 1.802 and 0.8487 and 1.092 and 1.425 and the “overall locomotion in open field” value (naive mice; both sexes, s.c. 10 μmol/kg, 150 minutes) was “overall locomotion was the same between groups”. For the same compound, the “open field locomotion per 5min bin (Fig S8A)” value (naive mice; myr 30 sc, time bin 5) was 9.792 and 20.2101 and 12.2703 and 19.016 and 30.6965 and 16.9458, the “open field locomotion per 5min bin (Fig S8A)” value (naive mice; myr 30 sc, time bin 10) was 7.961 and 14.7148 and 7.884 and 18.3273 and the “open field locomotion per 5min bin (Fig S8A)” value (naive mice; myr 30 sc, time bin 35) was 5.715 and 10.7688 and 1.1088 and 12.4123 and 20.664 and 5.688. For the same compound, the “open field locomotion per 5min bin (Fig S8A)” value (naive mice; myr 30 sc, time bin 40) was 11.1707 and 7.0291 and 1.7211 and 14.3893 and 18.0978 and 1.491, the “open field locomotion per 5min bin (Fig S8A)” value (naive mice; myr 30 sc, time bin 45) was 1.78 and 8.087 and 5.349 and 15.4878 and 14.3776 and 5.135 and the “open field locomotion per 5min bin (Fig S8A)” value (naive mice; myr 30 sc, time bin 50) was 0.4107 and 5.0774 and 0.9705 and 10.9758 and 18.1434 and 3.971. For the same compound, the “open field locomotion per 5min bin (Fig S8A)” value (naive mice; myr 30 sc, time bin 55) was 2.375 and 2.374 and 0.2143 and 12.0295 and 18.4127 and 1.9358, the “open field locomotion per 5min bin (Fig S8A)” value (naive mice; myr 30 sc, time bin 60) was 5.982 and 3.075 and 0.4734 and 12.4806 and 21.7634 and 4.464 and the “open field locomotion per 5min bin (Fig S8A)” value (naive mice; myr 50 sc, time bin 5) was 18.0979 and 18.5029 and 7.528 and 18.9529 and 21.6506 and 14.4427 and 14.0357. For the same compound, the “open field locomotion per 5min bin (Fig S8A)” value (naive mice; myr 50 sc, time bin 10) was 7.558 and 10.3984 and 2.952 and 12.1538 and 11.8366, the “open field locomotion per 5min bin (Fig S8A)” value (naive mice; myr 50 sc, time bin 35) was 4.238 and 1.175 and 0.5656 and 5.236 and 7.164 and 13.3118 and 5.291 and the “open field locomotion per 5min bin (Fig S8A)” value (naive mice; myr 50 sc, time bin 40) was 1.639 and 8.588 and 1.093 and 4.076 and 7.194 and 14.7431 and 4.194. The “open field locomotion per 5min bin (Fig S8A)” value (naive mice; myr 50 sc, time bin 45) was 1.4137 and 3.876 and 1.161 and 4.905 and 5.068 and 11.8464 and 7.804, the “open field locomotion per 5min bin (Fig S8A)” value (naive mice; myr 50 sc, time bin 50) was 0.9835 and 5.464 and 0.5467 and 1.258 and 0.6955 and 8.558 and 8.666 and the “open field locomotion per 5min bin (Fig S8A)” value (naive mice; myr 50 sc, time bin 55) was 1.533 and 3.196 and 1.532 and 1.249 and 4.7524 and 13.5785 and 1.184. The “open field locomotion per 5min bin (Fig S8A)” value (naive mice; myr 50 sc, time bin 60) was 1.079 and 3.0668 and 0.6715 and 10.3299 and 7.512 and 5.91 and 5.742, the “total locomotion in open field, individual mice” value (naive mice; s.c. 10 μmol/kg, 150 minutes) was 177.609 and 107.816 and 106.645 and 245.588 and 278.41 and 220.659 and 185.74 and 353.332 and 277.158 and 380.649 and 207.835 and the “locomotor activity in open field” value (naive mice; s.c. 30 or 50 μmol/kg) was “did not show any significant effect on locomotor activity”.
